The values below come from ChEMBL document CHEMBL3286170, “Design, synthesis and antimycobacterial activity evaluation of natural oridonin derivatives” (2014).

Converted amounts (≈) assume the structure as drawn.

Holding throughout (format): functional
One assay concerns Mycolicibacterium phlei. Put plainly: Antimycobacterial activity against Mycobacterium phlei ATCC 355 after 1 day by alamar blue assay. The settings on record: ATCC 355, 24 h. (The colour change of resazurin is a common sign of viable cells or microbes.)
Assay [1] has as its system Mycolicibacterium smegmatis. In words: Antimycobacterial activity against Mycobacterium smegmatis ATCC 19420 after 1 day. The following applies: ATCC 19420, 24 h.
The subject of the next assay is Mycobacterium marinum. In words: Antimycobacterial activity against Mycobacterium marinum ATCC 927 after 7 days. The settings on record: ATCC 927, 168 h.

Broadly, the MIC is the lowest concentration that inhibits growth of the organism. In the assay on Mycolicibacterium phlei, `C=C1C(=O)[C@@]23C(=O)O[C@H]4CCC(C)(C)[C@H]5[C@H](O)OC[C@@]45[C@@H]2CC[C@@H]1[C@H]3O` had a minimal inhibitory concentration (MIC) of 32 µg/mL (≈ 88.3 µM).

`C=C1C(=O)[C@@]23C(=O)O[C@H]4CCC(C)(C)[C@H]5C(=O)OC[C@@]45[C@@H]2CC[C@@H]1[C@H]3O` displayed an MIC against Mycolicibacterium phlei of 16 µg/mL (≈ 44.4 µM).

`C=C1C(=O)[C@@]23C(=O)O[C@H]4CCC(C)(C)[C@H]5[C@H](O)OC[C@@]45[C@@H]2CC[C@@H]1[C@H]3OC(C)=O` showed an MIC with Mycolicibacterium phlei of 32 µg/mL (≈ 79.1 µM).

On to `C=C1C(=O)[C@@]23C(=O)O[C@H]4CCC(C)(C)[C@H]5[C@H](O)OC[C@@]45[C@@H]2CC[C@@H]1[C@H]3OC(=O)c1ccc(C(F)(F)F)cc1`, for which the values for the MIC (in assay [1]; in the assay with Mycolicibacterium phlei; against Mycobacterium marinum) were 16 µg/mL (≈ 29.9 µM), 8 µg/mL (≈ 15 µM) and 16 µg/mL (≈ 29.9 µM), respectively.

Regarding `C=C1C(=O)[C@]23[C@H](OC(=O)C4CCCCC4)[C@H]1CC[C@H]2[C@@]12CO[C@]3(O)[C@@H](O)[C@@H]1C(C)(C)CC[C@@H]2O`, the lowest concentration to inhibit growth against Mycolicibacterium phlei (MIC) was 8 µg/mL (≈ 16.9 µM).

Take `C=C1C(=O)[C@]23[C@H](OC(=O)C45CC6CC(CC(C6)C4)C5)[C@H]1CC[C@H]2[C@@]12CO[C@]3(O)[C@@H](O)[C@@H]1C(C)(C)CC[C@@H]2O`: inhibition of growth against Mycolicibacterium phlei (MIC) required 16 µg/mL (≈ 30.4 µM).

For `C=C1C(=O)[C@]23[C@H](OC(=O)CCCCCCC)[C@H]1CC[C@H]2[C@@]12CO[C@]3(O)[C@@H](O)[C@@H]1C(C)(C)CC[C@@H]2O`, the minimum inhibitory concentration (MIC) in assay [1] amounted to 16 µg/mL (≈ 32.6 µM); against Mycolicibacterium phlei, 2 µg/mL (≈ 4.08 µM); against Mycobacterium marinum, 16 µg/mL (≈ 32.6 µM).

In the assay on Mycolicibacterium phlei, `C=C1C(=O)[C@]23[C@H](OC(=O)c4ccc(F)cc4)[C@H]1CC[C@H]2[C@@]12CO[C@]3(O)[C@@H](O)[C@@H]1C(C)(C)CC[C@@H]2O` returned a minimum inhibitory concentration (MIC) of 32 µg/mL (≈ 65.8 µM).

In the assay with Mycolicibacterium phlei, `C=C1C(=O)[C@]23[C@H](OC(=O)c4ccc(C(F)(F)F)cc4)[C@H]1CC[C@H]2[C@@]12CO[C@]3(O)[C@@H](O)[C@@H]1C(C)(C)CC[C@@H]2O` registered an MIC of 16 µg/mL (≈ 29.8 µM).

In the case of `C=C1C(=O)[C@]23[C@H](OC(=O)c4cccnc4)[C@H]1CC[C@H]2[C@@]12CO[C@]3(O)[C@@H](O)[C@@H]1C(C)(C)CC[C@@H]2O`, in the assay with Mycolicibacterium phlei, the lowest concentration to inhibit growth (MIC) was 16 µg/mL (≈ 34.1 µM).

As to `C=C1C(=O)[C@]23[C@H](OC(=O)Cc4c[nH]c5ccccc45)[C@H]1CC[C@H]2[C@@]12CO[C@]3(O)[C@@H](O)[C@@H]1C(C)(C)CC[C@@H]2O`, the MIC in the assay on Mycolicibacterium phlei was determined as 32 µg/mL (≈ 61.3 µM).

As to `C=C1C(=O)[C@]23[C@H](OC(=O)c4cnccn4)[C@H]1CC[C@H]2[C@@]12CO[C@]3(O)[C@@H](O)[C@@H]1C(C)(C)CC[C@@H]2O`, the results for the minimum inhibitory concentration (MIC) (in assay [1]; against Mycolicibacterium phlei; in the assay on Mycobacterium marinum) were 32 µg/mL (≈ 68 µM), 4 µg/mL (≈ 8.5 µM) and 32 µg/mL (≈ 68 µM), respectively.

As for `C=C1C(=O)[C@]23[C@H](OC(=O)/C=C/c4ccccc4)[C@H]1CC[C@H]2[C@@]12CO[C@]3(O)[C@@H](O)[C@@H]1C(C)(C)CC[C@@H]2O`, the figures for the MIC (in assay [1]; in the assay with Mycolicibacterium phlei; with Mycobacterium marinum) were 8 µg/mL (≈ 16.2 µM), 1 µg/mL (≈ 2.02 µM) and 8 µg/mL (≈ 16.2 µM), respectively.

As to `C=C1C(=O)[C@]23[C@H](OC(=O)/C=C/c4ccc(F)cc4)[C@H]1CC[C@H]2[C@@]12CO[C@]3(O)[C@@H](O)[C@@H]1C(C)(C)CC[C@@H]2O`, the MIC is 4 µg/mL (≈ 7.8 µM) in assay [1], 2 µg/mL (≈ 3.9 µM) against Mycolicibacterium phlei and 8 µg/mL (≈ 15.6 µM) in the assay with Mycobacterium marinum.

Turning to `C=C1C(=O)[C@]23[C@H](OC(=O)/C=C/c4ccc(OC)cc4)[C@H]1CC[C@H]2[C@@]12CO[C@]3(O)[C@@H](O)[C@@H]1C(C)(C)CC[C@@H]2O`, the minimum inhibitory concentration (MIC) in assay [1] amounted to 4 µg/mL (≈ 7.62 µM); with Mycolicibacterium phlei, 0.5 µg/mL (≈ 0.953 µM); with Mycobacterium marinum, 4 µg/mL (≈ 7.62 µM).

Turning to `C=C1C(=O)[C@]23[C@H](OC(=O)/C=C/c4ccc(OC)c(OC)c4)[C@H]1CC[C@H]2[C@@]12CO[C@]3(O)[C@@H](O)[C@@H]1C(C)(C)CC[C@@H]2O`, the minimal inhibitory concentration (MIC) in assay [1] was determined as 8 µg/mL (≈ 14.4 µM); against Mycolicibacterium phlei, 1 µg/mL (≈ 1.8 µM); against Mycobacterium marinum, 16 µg/mL (≈ 28.8 µM).

In the case of `C=C1C(=O)[C@@]23C(=O)O[C@H]4CCC(C)(C)[C@H]5[C@H](O)OC[C@@]45[C@@H]2CC[C@@H]1[C@H]3OC(=O)/C=C/c1ccccc1`, the values for the MIC (in assay [1]; in the assay on Mycolicibacterium phlei; with Mycobacterium marinum) were 16 µg/mL (≈ 32.5 µM), 2 µg/mL (≈ 4.06 µM) and 32 µg/mL (≈ 65 µM), respectively.

Take `C=C1C(=O)[C@@]23C(=O)O[C@H]4CCC(C)(C)[C@H]5[C@H](O)OC[C@@]45[C@@H]2CC[C@@H]1[C@H]3OC(=O)/C=C/c1ccc(F)cc1`: the figures for the MIC (in assay [1]; against Mycolicibacterium phlei; with Mycobacterium marinum) were 16 µg/mL (≈ 31.3 µM), 0.5 µg/mL (≈ 0.979 µM) and 16 µg/mL (≈ 31.3 µM), respectively.

Regarding `C=C1C(=O)[C@@]23C(=O)O[C@H]4CCC(C)(C)[C@H]5[C@H](O)OC[C@@]45[C@@H]2CC[C@@H]1[C@H]3OC(=O)/C=C/c1ccc(OC)cc1`, the MIC in assay [1] was 16 µg/mL (≈ 30.6 µM); with Mycolicibacterium phlei, 2 µg/mL (≈ 3.83 µM); with Mycobacterium marinum, 32 µg/mL (≈ 61.2 µM).

Turning to `C=C1C(=O)[C@@]23C(=O)O[C@H]4CCC(C)(C)[C@H]5C(=O)OC[C@@]45[C@@H]2CC[C@@H]1[C@H]3OC(C)=O`, the minimum inhibitory concentration (MIC) in assay [1] worked out at 64 µg/mL (≈ 159 µM); in the assay on Mycolicibacterium phlei, 2 µg/mL (≈ 4.97 µM); with Mycobacterium marinum, 64 µg/mL (≈ 159 µM).

Take `C=C1C(=O)[C@@]23C(=O)O[C@H]4CCC(C)(C)[C@H]5C(=O)OC[C@@]45[C@@H]2CC[C@@H]1[C@H]3OC(=O)c1ccc(F)cc1`: the minimum inhibitory concentration (MIC) amounted to 16 µg/mL (≈ 33.2 µM) in assay [1], 2 µg/mL (≈ 4.15 µM) in the assay on Mycolicibacterium phlei and 32 µg/mL (≈ 66.3 µM) in the assay on Mycobacterium marinum.

Regarding `C=C1C(=O)[C@@]23C(=O)O[C@H]4CCC(C)(C)[C@H]5C(=O)OC[C@@]45[C@@H]2CC[C@@H]1[C@H]3OC(=O)/C=C/c1ccccc1`, the MIC in assay [1] was found to be 4 µg/mL (≈ 8.15 µM); against Mycolicibacterium phlei it was 0.5 µg/mL (≈ 1.02 µM); against Mycobacterium marinum it was 4 µg/mL (≈ 8.15 µM).

Regarding `C=C1C(=O)[C@@]23C(=O)O[C@H]4CCC(C)(C)[C@H]5C(=O)OC[C@@]45[C@@H]2CC[C@@H]1[C@H]3OC(=O)/C=C/c1ccc(F)cc1`, the MIC in assay [1] amounted to 4 µg/mL (≈ 7.87 µM); with Mycolicibacterium phlei, 0.5 µg/mL (≈ 0.983 µM); with Mycobacterium marinum, 4 µg/mL (≈ 7.87 µM).

Compound `C=C1C(=O)[C@]23[C@H](O)[C@H]1CC[C@H]2[C@@]12CO[C@]3(O)[C@@H](O)[C@@H]1C(C)(C)CCC2=O` had an MIC against Mycolicibacterium phlei of 8 µg/mL (≈ 22.1 µM).

For the compound `C=C1C(=O)[C@]23[C@H](OC(=O)C4CCCCC4)[C@H]1CC[C@H]2[C@@]12CO[C@]3(O)[C@@H](O)[C@@H]1C(C)(C)CCC2=O`, the minimal inhibitory concentration (MIC) against Mycolicibacterium phlei is 16 µg/mL (≈ 33.9 µM). This MIC lies about 2-fold higher than the previous one.

For the compound `C=C1C(=O)[C@]23[C@H](OC(=O)c4ccc(C(F)(F)F)cc4)[C@H]1CC[C@H]2[C@@]12CO[C@]3(O)[C@@H](O)[C@@H]1C(C)(C)CCC2=O`, the minimum inhibitory concentration (MIC) against Mycolicibacterium phlei worked out at 16 µg/mL (≈ 29.9 µM).

On to `C=C1C(=O)[C@]23[C@H](OC(=O)/C=C/c4ccc(F)cc4)[C@H]1CC[C@H]2[C@@]12CO[C@]3(O)[C@@H](O)[C@@H]1C(C)(C)CCC2=O`, for which the MIC in assay [1] stood at 16 µg/mL (≈ 31.3 µM); in the assay with Mycolicibacterium phlei, 8 µg/mL (≈ 15.7 µM); against Mycobacterium marinum, 64 µg/mL (≈ 125 µM).

As for `C=C1C(=O)[C@]23[C@H](OC(=O)C4CCCCC4)[C@H]1CC[C@H]2[C@@]12CO[C@]3(O)[C@@H](O)[C@@H]1C(C)(C)CC[C@@H]2OC(C)=O`, in the assay with Mycolicibacterium phlei, the minimum inhibitory concentration (MIC) amounted to 8 µg/mL (≈ 15.5 µM).

On to `C=C1C(=O)[C@]23[C@H](OC(=O)c4ccc(C(F)(F)F)cc4)[C@H]1CC[C@H]2[C@@]12CO[C@]3(O)[C@@H](O)[C@@H]1C(C)(C)CC[C@@H]2OC(C)=O`, for which, in the assay with Mycolicibacterium phlei, the minimal inhibitory concentration (MIC) amounted to 16 µg/mL (≈ 27.7 µM). Compared with the last compound, the MIC is about 2-fold higher.

As to `C=C1C(=O)[C@]23[C@H](OC(=O)/C=C/c4ccc(F)cc4)[C@H]1CC[C@H]2[C@@]12CO[C@]3(O)[C@@H](O)[C@@H]1C(C)(C)CC[C@@H]2OC(C)=O`, the MIC was 16 µg/mL (≈ 28.8 µM) in assay [1], 8 µg/mL (≈ 14.4 µM) against Mycolicibacterium phlei and 64 µg/mL (≈ 115 µM) with Mycobacterium marinum.

In the case of `C=C1C(=O)[C@]23[C@H](O)[C@H]1CC[C@H]2[C@@]12CO[C@@]3(O)[C@@H](O)[C@@H]1C(C)(C)CC[C@@H]2OC(C)=O` [LASIOKAURIN], the values for the minimum inhibitory concentration (MIC) (in assay [1]; with Mycolicibacterium phlei; against Mycobacterium marinum) were 16 µg/mL (≈ 39.4 µM), 1 µg/mL (≈ 2.46 µM) and 32 µg/mL (≈ 78.7 µM), respectively.

In the case of `C=C1C(=O)[C@]23[C@H](O)[C@H]1CC[C@H]2[C@@]12CO[C@]3(O)[C@@H](O)[C@@H]1C(C)(C)CC[C@@H]2O` [ORIDONIN], the MIC in assay [1] was above 64 µg/mL; against Mycolicibacterium phlei, 16 µg/mL (≈ 43.9 µM); against Mycobacterium marinum, above 64 µg/mL.

In the case of `CN[C@@H]1[C@H](O[C@H]2[C@H](O[C@H]3[C@H](O)[C@@H](O)[C@H](N=C(N)N)[C@@H](O)[C@@H]3N=C(N)N)O[C@@H](C)[C@]2(O)C=O)O[C@@H](CO)[C@H](O)[C@H]1O` [STREPTOMYCIN], the minimum inhibitory concentration (MIC) in assay [1] is 0.125 µg/mL (≈ 0.215 µM); in the assay on Mycolicibacterium phlei, 0.5 µg/mL (≈ 0.86 µM); against Mycobacterium marinum, 0.5 µg/mL (≈ 0.86 µM).
